# According to the supplement of paper PMC8671470:
# Test system: BV-173
# Test: cell viability (% survival relative to DMSO control); higher = less cytotoxic
# Settings: drug1 concentration 50 nM; drug2 concentration 10 nM; 72 h
# Experimental: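 8x8 drug-combination matrices (0–5000 nM; rosiglitazone and lestaurtinib 0–1000 nM) were run in BV-173 cells for 72 h with CellTiter-Glo read-out. Survival is normalised to DMSO and 10 µM bortezomib and clipped at 100%.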
row,SMILES,cell viability
1,O=C(C1CC1)N1CC[C@@H](C=C2NNC(=O)N2c2ccc(-c3ccc4occc4c3)cc2)C1 + C[C@H](NC(=O)c1sccc1OCc1ccc(Cl)cc1)c1ccccc1 [as1949490],> 100%
2,O=C(C1CC1)N1CC[C@@H](C=C2NNC(=O)N2c2ccc(-c3ccc4occc4c3)cc2)C1 + O=C(c1c2ccccc2cc2ccccc12)N1CCC(N2CCC[C@@H](C(=O)N3CCOCC3)C2)CC1 [CP-640186],87.8%
3,CC(C)c1onc(-c2c(Cl)cccc2Cl)c1COc1ccc(/C=C/c2cccc(C(=O)O)c2)c(Cl)c1 [GW4064] + Cn1cc(-c2ccncc2)c(-c2ccc(OCc3ccc4ccccc4n3)cc2)n1 [PF-02545920],95.6%

# Same assay, conditions: drug1 concentration 50 nM; drug2 concentration 50 nM; 72 h
row,SMILES,cell viability
1,O=C(C1CC1)N1CC[C@@H](C=C2NNC(=O)N2c2ccc(-c3ccc4occc4c3)cc2)C1 + CS(=O)(=O)N1CCN(Cc2cc3nc(-c4cccc5[nH]ncc45)nc(N4CCOCC4)c3s2)CC1 [Pictilisib],> 100%
2,O=C(C1CC1)N1CC[C@@H](C=C2NNC(=O)N2c2ccc(-c3ccc4occc4c3)cc2)C1 + C[C@H](NC(=O)c1sccc1OCc1ccc(Cl)cc1)c1ccccc1 [as1949490],> 100%
3,O=C(C1CC1)N1CC[C@@H](C=C2NNC(=O)N2c2ccc(-c3ccc4occc4c3)cc2)C1 + O=C(c1c2ccccc2cc2ccccc12)N1CCC(N2CCC[C@@H](C(=O)N3CCOCC3)C2)CC1 [CP-640186],> 100%
4,CC(C)c1onc(-c2c(Cl)cccc2Cl)c1COc1ccc(/C=C/c2cccc(C(=O)O)c2)c(Cl)c1 [GW4064] + Cn1cc(-c2ccncc2)c(-c2ccc(OCc3ccc4ccccc4n3)cc2)n1 [PF-02545920],> 100%

# Same assay, conditions: drug1 concentration 50 nM; drug2 concentration 100 nM; 72 h
row,SMILES,cell viability
1,O=C(C1CC1)N1CC[C@@H](C=C2NNC(=O)N2c2ccc(-c3ccc4occc4c3)cc2)C1 + CS(=O)(=O)N1CCN(Cc2cc3nc(-c4cccc5[nH]ncc45)nc(N4CCOCC4)c3s2)CC1 [Pictilisib],> 100%
2,O=C(C1CC1)N1CC[C@@H](C=C2NNC(=O)N2c2ccc(-c3ccc4occc4c3)cc2)C1 + C[C@H](NC(=O)c1sccc1OCc1ccc(Cl)cc1)c1ccccc1 [as1949490],> 100%
3,O=C(C1CC1)N1CC[C@@H](C=C2NNC(=O)N2c2ccc(-c3ccc4occc4c3)cc2)C1 + O=C(c1c2ccccc2cc2ccccc12)N1CCC(N2CCC[C@@H](C(=O)N3CCOCC3)C2)CC1 [CP-640186],> 100%
4,CC(C)c1onc(-c2c(Cl)cccc2Cl)c1COc1ccc(/C=C/c2cccc(C(=O)O)c2)c(Cl)c1 [GW4064] + Cn1cc(-c2ccncc2)c(-c2ccc(OCc3ccc4ccccc4n3)cc2)n1 [PF-02545920],> 100%

# Same assay, conditions: drug1 concentration 50 nM; drug2 concentration 500 nM; 72 h
row,SMILES,cell viability
1,O=C(C1CC1)N1CC[C@@H](C=C2NNC(=O)N2c2ccc(-c3ccc4occc4c3)cc2)C1 + CS(=O)(=O)N1CCN(Cc2cc3nc(-c4cccc5[nH]ncc45)nc(N4CCOCC4)c3s2)CC1 [Pictilisib],93.8%
2,O=C(C1CC1)N1CC[C@@H](C=C2NNC(=O)N2c2ccc(-c3ccc4occc4c3)cc2)C1 + C[C@H](NC(=O)c1sccc1OCc1ccc(Cl)cc1)c1ccccc1 [as1949490],84.8%
3,O=C(C1CC1)N1CC[C@@H](C=C2NNC(=O)N2c2ccc(-c3ccc4occc4c3)cc2)C1 + O=C(c1c2ccccc2cc2ccccc12)N1CCC(N2CCC[C@@H](C(=O)N3CCOCC3)C2)CC1 [CP-640186],> 100%
4,CC(C)c1onc(-c2c(Cl)cccc2Cl)c1COc1ccc(/C=C/c2cccc(C(=O)O)c2)c(Cl)c1 [GW4064] + Cn1cc(-c2ccncc2)c(-c2ccc(OCc3ccc4ccccc4n3)cc2)n1 [PF-02545920],96%

# Same assay, conditions: drug1 concentration 50 nM; drug2 concentration 1000 nM; 72 h
row,SMILES,cell viability
1,O=C(C1CC1)N1CC[C@@H](C=C2NNC(=O)N2c2ccc(-c3ccc4occc4c3)cc2)C1 + CS(=O)(=O)N1CCN(Cc2cc3nc(-c4cccc5[nH]ncc45)nc(N4CCOCC4)c3s2)CC1 [Pictilisib],> 100%
2,O=C(C1CC1)N1CC[C@@H](C=C2NNC(=O)N2c2ccc(-c3ccc4occc4c3)cc2)C1 + C[C@H](NC(=O)c1sccc1OCc1ccc(Cl)cc1)c1ccccc1 [as1949490],99.3%
3,O=C(C1CC1)N1CC[C@@H](C=C2NNC(=O)N2c2ccc(-c3ccc4occc4c3)cc2)C1 + O=C(c1c2ccccc2cc2ccccc12)N1CCC(N2CCC[C@@H](C(=O)N3CCOCC3)C2)CC1 [CP-640186],> 100%
4,CC(C)c1onc(-c2c(Cl)cccc2Cl)c1COc1ccc(/C=C/c2cccc(C(=O)O)c2)c(Cl)c1 [GW4064] + Cn1cc(-c2ccncc2)c(-c2ccc(OCc3ccc4ccccc4n3)cc2)n1 [PF-02545920],82.7%

# Same assay, conditions: drug1 concentration 50 nM; drug2 concentration 5000 nM; 72 h
row,SMILES,cell viability
1,O=C(C1CC1)N1CC[C@@H](C=C2NNC(=O)N2c2ccc(-c3ccc4occc4c3)cc2)C1 + CS(=O)(=O)N1CCN(Cc2cc3nc(-c4cccc5[nH]ncc45)nc(N4CCOCC4)c3s2)CC1 [Pictilisib],84.8%
2,O=C(C1CC1)N1CC[C@@H](C=C2NNC(=O)N2c2ccc(-c3ccc4occc4c3)cc2)C1 + C[C@H](NC(=O)c1sccc1OCc1ccc(Cl)cc1)c1ccccc1 [as1949490],73.8%
3,O=C(C1CC1)N1CC[C@@H](C=C2NNC(=O)N2c2ccc(-c3ccc4occc4c3)cc2)C1 + O=C(c1c2ccccc2cc2ccccc12)N1CCC(N2CCC[C@@H](C(=O)N3CCOCC3)C2)CC1 [CP-640186],87.5%
4,CC(C)c1onc(-c2c(Cl)cccc2Cl)c1COc1ccc(/C=C/c2cccc(C(=O)O)c2)c(Cl)c1 [GW4064] + Cn1cc(-c2ccncc2)c(-c2ccc(OCc3ccc4ccccc4n3)cc2)n1 [PF-02545920],79.3%

# Same assay, conditions: drug1 concentration 100 nM; drug2 concentration 5 nM; 72 h
row,SMILES,cell viability
1,O=C(C1CC1)N1CC[C@@H](C=C2NNC(=O)N2c2ccc(-c3ccc4occc4c3)cc2)C1 + CS(=O)(=O)N1CCN(Cc2cc3nc(-c4cccc5[nH]ncc45)nc(N4CCOCC4)c3s2)CC1 [Pictilisib],> 100%
2,O=C(C1CC1)N1CC[C@@H](C=C2NNC(=O)N2c2ccc(-c3ccc4occc4c3)cc2)C1 + C[C@H](NC(=O)c1sccc1OCc1ccc(Cl)cc1)c1ccccc1 [as1949490],> 100%
3,O=C(C1CC1)N1CC[C@@H](C=C2NNC(=O)N2c2ccc(-c3ccc4occc4c3)cc2)C1 + O=C(c1c2ccccc2cc2ccccc12)N1CCC(N2CCC[C@@H](C(=O)N3CCOCC3)C2)CC1 [CP-640186],> 100%
4,CC(C)c1onc(-c2c(Cl)cccc2Cl)c1COc1ccc(/C=C/c2cccc(C(=O)O)c2)c(Cl)c1 [GW4064] + Cn1cc(-c2ccncc2)c(-c2ccc(OCc3ccc4ccccc4n3)cc2)n1 [PF-02545920],90.6%

# Same assay, conditions: drug1 concentration 100 nM; drug2 concentration 10 nM; 72 h
row,SMILES,cell viability
1,O=C(C1CC1)N1CC[C@@H](C=C2NNC(=O)N2c2ccc(-c3ccc4occc4c3)cc2)C1 + CS(=O)(=O)N1CCN(Cc2cc3nc(-c4cccc5[nH]ncc45)nc(N4CCOCC4)c3s2)CC1 [Pictilisib],> 100%
2,O=C(C1CC1)N1CC[C@@H](C=C2NNC(=O)N2c2ccc(-c3ccc4occc4c3)cc2)C1 + C[C@H](NC(=O)c1sccc1OCc1ccc(Cl)cc1)c1ccccc1 [as1949490],> 100%
3,O=C(C1CC1)N1CC[C@@H](C=C2NNC(=O)N2c2ccc(-c3ccc4occc4c3)cc2)C1 + O=C(c1c2ccccc2cc2ccccc12)N1CCC(N2CCC[C@@H](C(=O)N3CCOCC3)C2)CC1 [CP-640186],> 100%
4,CC(C)c1onc(-c2c(Cl)cccc2Cl)c1COc1ccc(/C=C/c2cccc(C(=O)O)c2)c(Cl)c1 [GW4064] + Cn1cc(-c2ccncc2)c(-c2ccc(OCc3ccc4ccccc4n3)cc2)n1 [PF-02545920],> 100%

# Same assay, conditions: drug1 concentration 100 nM; drug2 concentration 50 nM; 72 h
row,SMILES,cell viability
1,O=C(C1CC1)N1CC[C@@H](C=C2NNC(=O)N2c2ccc(-c3ccc4occc4c3)cc2)C1 + CS(=O)(=O)N1CCN(Cc2cc3nc(-c4cccc5[nH]ncc45)nc(N4CCOCC4)c3s2)CC1 [Pictilisib],> 100%
2,O=C(C1CC1)N1CC[C@@H](C=C2NNC(=O)N2c2ccc(-c3ccc4occc4c3)cc2)C1 + C[C@H](NC(=O)c1sccc1OCc1ccc(Cl)cc1)c1ccccc1 [as1949490],85%
3,O=C(C1CC1)N1CC[C@@H](C=C2NNC(=O)N2c2ccc(-c3ccc4occc4c3)cc2)C1 + O=C(c1c2ccccc2cc2ccccc12)N1CCC(N2CCC[C@@H](C(=O)N3CCOCC3)C2)CC1 [CP-640186],> 100%
4,CC(C)c1onc(-c2c(Cl)cccc2Cl)c1COc1ccc(/C=C/c2cccc(C(=O)O)c2)c(Cl)c1 [GW4064] + Cn1cc(-c2ccncc2)c(-c2ccc(OCc3ccc4ccccc4n3)cc2)n1 [PF-02545920],> 100%

# Same assay, conditions: drug1 concentration 100 nM; drug2 concentration 100 nM; 72 h
row,SMILES,cell viability
1,O=C(C1CC1)N1CC[C@@H](C=C2NNC(=O)N2c2ccc(-c3ccc4occc4c3)cc2)C1 + CS(=O)(=O)N1CCN(Cc2cc3nc(-c4cccc5[nH]ncc45)nc(N4CCOCC4)c3s2)CC1 [Pictilisib],94.8%
2,O=C(C1CC1)N1CC[C@@H](C=C2NNC(=O)N2c2ccc(-c3ccc4occc4c3)cc2)C1 + C[C@H](NC(=O)c1sccc1OCc1ccc(Cl)cc1)c1ccccc1 [as1949490],88.5%
